From patent US20140357688A1, “METHOD FOR INHIBITING EZH2 EXPRESSION IN BREAST CANCER CELLS” (Yung Shin Pharm. Ind. Co., Ltd., priority 2013, published 2014)

Experiments:
[1] = system: MCF-10A; experiment: MTT cell viability assay; format: cell-based, human; settings: normal mammary epithelial cells MCF-10A
Description: (§1) (A) Cells were treated with indicated concentration of YC-1 for 6, 24, and 48 h. Cell viability was determined by MTT method. (B) MDA-MB-468 cells were treated with 3 μM YC-1 for 0, 6, and 12 h, and then stained with fluorescence diacetate (FDA) and propidium iodide (PI). Cell morphology was assessed by fluorescence microscopy with magnification ×20 (upper 3 rows) or ×40 (lowest row). (C) MDA-MB-468 cells were treated with 3 μM YC-1 for 24 h, cells were lysed and subjected to western blot analysis described in Materials and Methods. β-actin is a loading control. Blots were representative of results from three independent experiments. (D) Cells were treated with vehicle (DMSO, as control) or 3 μM YC-1 for 6 h. The cell cycles were analyzed by flow cytometry. (E) Cells were treated with indicated concentration of YC-1 and then performed with clonogenic assay.
(§2) Human breast cancer cells, MDA-MB-468, MDA-MB-157, MDA-MB-231, MDA-MB-453, and Hs578T, and immortalized mammary epithelial cell lines, 184A1 and MCF-10A, were obtained from American Type Culture Collection (Manassas, Va., USA). MDA-MB-468, MDA-MB-157, MDA-MB-231, and MDA-MB-453 were cultured in DMEM/F12 medium supplemented with 10% FBS, 100 U/ml penicillin, and 100 μg/ml streptomycin. Hs578T was cultured in RPMI 1640 medium containing 10% FBS, 2 mM L-glutamine, 100 U/ml penicillin, and 100 μg/ml streptomycin. 184A1 and MCF-10A were cultured in DMEM/F12 medium supplemented with 5% horse serum, 0.5 μg/ml hydrocortisone, 10 μg/ml insulin, 20 ng/ml epidermal growth factor, 0.1 μg/ml cholera enterotoxin, 2 mM L-glutamine, 100 U/ml penicillin, and 100 μg/ml streptomycin. All cells were maintained in a humidified incubator containing 5% CO2. For hypoxia treatment, cells were incubated in a chamber flushed with 1% 02, 5% CO2, and 94% N2 at 37° C.
(§3) Cell viability was measured by 3-(4,5-Dimethyl-2-thiazolyl)2,5-diphenyl-2H-tetrazolium bromide (MTT) assay.

[2] = system: 184A1; experiment: MTT cell viability assay; format: cell-based, human; settings: normal mammary epithelial cells 184A1
Description: as §1, §2, §3

[3] = system: MDA-MB-468; experiment: MTT cell viability assay; format: cell-based, human; settings: Homo sapiens, MDA-MB-468
Description: as §1, §2, §3

[4] = system: ERK; experiment: Western blot of ERK phosphorylation in MDA-MB-468 cells; format: cell-based, human; settings: 3 μM YC-1; beginning at 2 h, maximal at 6 h
Description: (A) Cells were pretreated with KT5720 (3 μM), KT5823 (3 μM), NS2028 (30 μM), or ODQ (30 μM) and then stimulated with YC-1 (3 μM) for 6 h. Cells were collected for measurement of protein expression (left) or cell viability (middle). After 3 days of PKA knockdown, cells were induced with 3 μM YC-1 for 4 h. Cells were harvested and analyzed using western blotting (right). The levels of protein expression were quantitated and shown under blots. […] Cells were collected and analyzed protein expression (left) and cells viability (middle). p44/42 MAPK knockdown cells were treated with 3 μM YC-1 for 4 h and then detected protein expression (left). (C) Cells were treated with 3 μM YC-1 for indicated time. Cells were harvested for detection of protein phosphorylated activation. […] Six hours later, cells were harvested for EZH2 ubiquitination assay. (E) Cells were induced by 3 μM YC-1 for 6 h in the presence of PD98059 or KT5720. Cells were collected for the determination of ERK phosphorylation. Cells were lysed in PBS containing proteinase inhibitor and phosphatase inhibitors and sonication. Protein concentration was measured using the Bio-Rad protein assay kit (Bio-Rad Laboratories, Hercules, Calif., USA). […] The band intensities were analyzed and quantified by the Multi Gauge software (Fuji Photo Film).

[5] = system: EZH2; experiment: Western blot of EZH2 in tumor from MDA-MB-468 xenograft mice; format: in vivo, Nu/Nu mice
Description: (A)(B) Cells were treated with indicated concentration of YC-1 for 24 h (A) or 3 μM of YC-1 for indicated time (B). Cells were harvested and performed with western blotting analysis. […] The levels of protein expression were quantitated and shown under blots. (C) Cells were transfected with EZH2 shRNA for 0, 1, 2, 3, and 4 days and collected for determination of cell viability (left) and protein expression (right). (D)(E) After 4 days of EZH2 knockdown, cells were incubated with 3 μM YC-1 for 4 h and detected cell viability (D) and protein contents (E). (F) Tumor specimens were isolated and protein was extracted for western blot analysis.
Cells were lysed in PBS containing proteinase inhibitor and phosphatase inhibitors and sonication. Protein concentration was measured using the Bio-Rad protein assay kit (Bio-Rad Laboratories, Hercules, Calif., USA). Lysate protein was separated by electrophoresis of SDS-PAGE and transferred to Immobilon P membrane (EMD Millipore). […] The band intensities were analyzed and quantified by the Multi Gauge software (Fuji Photo Film).
Nu/Nu female mice (four weeks old) were from National Laboratory Animal Center, Taipei, Taiwan. […] Tumor size and body weights of mice were measured once per 3 days and tumor volume (mm^3) was calculated as the equation: length×(width)×0.5. […]

OCc1ccc(-c2nn(Cc3ccccc3)c3ccccc23)o1 [YC-1, 3-(5′-hydroxymethyl-2′-furyl)-1-benzyl indazole]
effect on cell viability [1]: no effect | effect on cell viability [2]: no effect | IC50 ([3]; 24 h-incubation): 620 ± 20 nM | IC50 ([3]; 48 h-incubation): 290 ± 20 nM | phosphorylated activation of ERK [4]: rapid phosphorylated activation | EZH2 level in tumor [5]: decrease EZH2 level in tumor
